Source: PubChem BioAssay AID1963832 (Molecular Pharmacology Branch, DTP, NCI, 2024)

Test system: 885724-159-R-J1-PDC complex spheroid viability
Assay: Anticancer human tumor 885724-159-R-J1-PDC patient-derived pancreatic adenocarcinoma cell line growth inhibition [POLQ]
Details: for IC50: curve of first compound; for viability, T/C: stronger effect = lower value; active means viability on the fitted dose curve at most 10% of control; inactive means the rest
Summary of the method: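 Three-cell-type spheroids modelling solid tumor plus stroma served as the readout system; POL inhibitors were tested individually and in combination, concentration ranges set by clinical Cmax where known.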
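Further: spheroids exposed to compounds for 7 days.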

COc1ccc([C@@H](O)c2cc(-c3ncnc4cc(N5CCOCC5)ccc34)c(F)cc2Cl)nn1 + Cc1cccc(N(C)C(=O)C2C(O)CCN2c2nc(C)cc(C(F)(F)F)c2C#N)c1
3.96 µM: IC50 (second compound 1 µM)
4.68 µM: IC50 (second compound 0.316 µM)
4.02 µM: IC50 (second compound 0.1 µM)
4.63 µM: IC50 (second compound 0.0316 µM)
4.6 µM: IC50 (second compound 10 µM)
inactive: viability, T/C (second compound 0.0316 µM, first compound 0.0316 µM) 112% | viability, T/C (second compound 0.0316 µM, first compound 0.1 µM) 90.2% | viability, T/C (second compound 0.0316 µM, first compound 0.316 µM) 88.6% | viability, T/C (second compound 0.0316 µM, first compound 1 µM) 70.1% | viability, T/C (second compound 0.0316 µM, first compound 3.16 µM) 60.5% | viability, T/C (second compound 0.0316 µM, first compound 10 µM) 35.6% | viability, T/C (second compound 0.1 µM, first compound 0.0316 µM) 93.7% | viability, T/C (second compound 0.1 µM, first compound 0.1 µM) 91.6% | viability, T/C (second compound 0.1 µM, first compound 0.316 µM) 81.5% | viability, T/C (second compound 0.1 µM, first compound 1 µM) 64.7% | viability, T/C (second compound 0.1 µM, first compound 3.16 µM) 56.7% | viability, T/C (second compound 0.1 µM, first compound 10 µM) 35.2% | viability, T/C (second compound 0.316 µM, first compound 0.0316 µM) 104% | viability, T/C (second compound 0.316 µM, first compound 0.1 µM) 84.8% | viability, T/C (second compound 0.316 µM, first compound 0.316 µM) 81.1% | viability, T/C (second compound 0.316 µM, first compound 1 µM) 81.9% | viability, T/C (second compound 0.316 µM, first compound 3.16 µM) 57.2% | viability, T/C (second compound 0.316 µM, first compound 10 µM) 33.7% | viability, T/C (second compound 1 µM, first compound 0.0316 µM) 103% | viability, T/C (second compound 1 µM, first compound 0.1 µM) 93.2% | viability, T/C (second compound 1 µM, first compound 0.316 µM) 89% | viability, T/C (second compound 1 µM, first compound 1 µM) 68% | viability, T/C (second compound 1 µM, first compound 3.16 µM) 55.3% | viability, T/C (second compound 1 µM, first compound 10 µM) 34.5% | viability, T/C (second compound 3.16 µM, first compound 0.0316 µM) 100% | viability, T/C (second compound 3.16 µM, first compound 0.1 µM) 92.5% | viability, T/C (second compound 3.16 µM, first compound 0.316 µM) 85.1% | viability, T/C (second compound 3.16 µM, first compound 1 µM) 78.6% | viability, T/C (second compound 3.16 µM, first compound 3.16 µM) 55.2% | viability, T/C (second compound 3.16 µM, first compound 10 µM) 33.4% | viability, T/C (second compound 10 µM, first compound 0.0316 µM) 101% | viability, T/C (second compound 10 µM, first compound 0.1 µM) 90.3% | viability, T/C (second compound 10 µM, first compound 0.316 µM) 85.1% | viability, T/C (second compound 10 µM, first compound 1 µM) 77% | viability, T/C (second compound 10 µM, first compound 3.16 µM) 55.9% | viability, T/C (second compound 10 µM, first compound 10 µM) 34.9%
4.44 µM: IC50 (second compound 3.16 µM)
